“And” between values parts separate entries of the source, which are not always exact repeats. Equal entries are not always repeated. Where two headings read alike, the source gives them in different places.
Assays:
RIPK2 = RIPK2 (Homo sapiens, UniProt O43353); assay: binding to AX14596 beads (HeLa lysate, SILAC MS)
Protocol: (§1) Differentially SILAC-encoded cell lysates were either incubated with the inhibitor beads displaying immobilized AX14596 or control resin devoid of ligand. In parallel, the supernatant from the first binding step was subjected to a second incubation with the AX14596 resin (FIG. 4). The resulting three elution fractions were combined, resolved by gel electrophoresis, proteolytically digested and the relative abundance of the retained proteins quantified. Proteins showing considerable binding to the control resin were identified as non-specific interactors and therefore not considered further. […] These target-specific ratios were similar in “label switch” experiments (FIGS. 6a and 6c). The binding equilibrium was determined in parallel control SILAC experiments as well as the excess of the immobilized compound over its cellular targets, the excess preferably being a molar excess (FIG. 7 and FIG. 8).
(§2) Cysteine carbamidomethylation was set as a fixed modification and N-acetyl protein and oxidized methionine were allowed as variable modifications. Spectra that were determined to result from heavy labeled peptides in the pre-search detection of SILAC partners by MaxQuant were searched with the fixed modifications Lys^4, Lys^8, Arg^6 and Arg^10, whereas MS/MS spectra for which no SILAC state could be assigned before database searching were searched with Lys^4, Lys^8, Arg^6 and Arg^10 as variable modifications. The mass tolerance was set to 5 ppm for monoisotopic precursor ions and to 0.5 Da for MS/MS peaks. The minimum peptide length was set to 6 amino acids and up to three missed cleavages and three isotopically labeled amino acids were permitted per peptide. The accepted false discovery rate (FDR) was 1% for the proteins and peptides. The cut-off for the posterior error probability (PEP) of peptides was set to 10%. Peptide PEPs were determined by generating Mascot score and peptide-length-dependent histograms for both the forward and the reverse hits and then deriving the probability of a false identification for a given top-scoring peptide using Bayes' theorem. The PEPs of peptides belonging to the same proteins were then multiplied. Each peptide sequence was considered only once with the lowest PEP determined in case of multiple sequencing of the same isotopic pattern or of peptide species with different SILAC, charge or modification states. Proteins were then sorted according to their products of their peptide PEPs and included until a FDR of 1% was reached according to the fraction of reverse proteins contained in the protein list. In addition to the FDR threshold applied for protein identification, proteins were only included when they were identified with at least two peptides (of which one was required to be unique for the protein) and quantified if at least on quantifiable SILAC pair was associated with them. Outliers were not removed as protein ratios were calculated as the median instead of the average of all peptide ratios. For peptides shared among different identified proteins, SILAC ratios were only considered for the ratio of the protein identified with the highest number of unique peptides. Protein ratios for the different in vitro association experiments were corrected for the initial SILAC pooling ratio, which was determined from the median of protein ratios in pooled SILAC-encoded cell extracts.

IGF2BP1 = IGF2BP1 (Homo sapiens, UniProt Q9NZI8); assay: binding to AX14596 beads (HeLa lysate, SILAC MS)
IGF2BP1, sequence (Q9NZI8 whole entry): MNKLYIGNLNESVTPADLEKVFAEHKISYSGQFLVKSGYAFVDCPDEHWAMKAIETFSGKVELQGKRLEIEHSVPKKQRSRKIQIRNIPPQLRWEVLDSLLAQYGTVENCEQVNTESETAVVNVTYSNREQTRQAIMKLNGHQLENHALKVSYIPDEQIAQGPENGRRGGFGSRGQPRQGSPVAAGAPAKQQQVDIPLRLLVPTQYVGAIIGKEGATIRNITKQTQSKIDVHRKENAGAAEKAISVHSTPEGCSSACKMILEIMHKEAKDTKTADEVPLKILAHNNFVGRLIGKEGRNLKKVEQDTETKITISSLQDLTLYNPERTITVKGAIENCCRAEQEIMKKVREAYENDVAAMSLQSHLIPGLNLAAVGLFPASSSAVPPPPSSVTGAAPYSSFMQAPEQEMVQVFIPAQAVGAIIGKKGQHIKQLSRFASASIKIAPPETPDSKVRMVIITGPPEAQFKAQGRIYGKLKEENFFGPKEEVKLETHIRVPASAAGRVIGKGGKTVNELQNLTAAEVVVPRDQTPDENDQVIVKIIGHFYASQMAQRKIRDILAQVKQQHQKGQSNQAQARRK
Protocol: as §1, §2

BLMH = biological target: T1, BLMH (Homo sapiens, UniProt Q13867); assay: binding to AX14596 beads (HeLa lysate, SILAC MS)
T1 construct: endogenous in cells; host or cells: HeLa S3
T1 sequence (Q13867 1-455): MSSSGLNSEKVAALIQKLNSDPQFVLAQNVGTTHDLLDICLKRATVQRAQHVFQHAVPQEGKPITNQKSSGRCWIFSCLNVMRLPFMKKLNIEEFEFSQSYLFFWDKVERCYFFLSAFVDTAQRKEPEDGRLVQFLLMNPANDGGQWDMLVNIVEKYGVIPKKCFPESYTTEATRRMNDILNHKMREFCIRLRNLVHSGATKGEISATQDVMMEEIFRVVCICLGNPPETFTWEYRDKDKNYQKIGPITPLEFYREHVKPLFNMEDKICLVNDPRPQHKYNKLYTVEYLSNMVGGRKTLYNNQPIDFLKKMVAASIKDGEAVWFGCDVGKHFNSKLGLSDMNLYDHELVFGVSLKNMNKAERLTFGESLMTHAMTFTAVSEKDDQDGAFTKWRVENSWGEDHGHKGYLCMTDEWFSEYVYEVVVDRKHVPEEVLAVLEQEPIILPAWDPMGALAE
Protocol: as §1, §2

[1] = biological target: T2, MST3 (STK24, IPI00872754) (Homo sapiens, UniProt Q9Y6E0); assay: binding to VI16742 beads (HeLa lysate, SILAC MS)
T2 construct: endogenous in cells; host or cells: HeLa S3 cell lysate
T2 sequence (Q9Y6E0 whole entry): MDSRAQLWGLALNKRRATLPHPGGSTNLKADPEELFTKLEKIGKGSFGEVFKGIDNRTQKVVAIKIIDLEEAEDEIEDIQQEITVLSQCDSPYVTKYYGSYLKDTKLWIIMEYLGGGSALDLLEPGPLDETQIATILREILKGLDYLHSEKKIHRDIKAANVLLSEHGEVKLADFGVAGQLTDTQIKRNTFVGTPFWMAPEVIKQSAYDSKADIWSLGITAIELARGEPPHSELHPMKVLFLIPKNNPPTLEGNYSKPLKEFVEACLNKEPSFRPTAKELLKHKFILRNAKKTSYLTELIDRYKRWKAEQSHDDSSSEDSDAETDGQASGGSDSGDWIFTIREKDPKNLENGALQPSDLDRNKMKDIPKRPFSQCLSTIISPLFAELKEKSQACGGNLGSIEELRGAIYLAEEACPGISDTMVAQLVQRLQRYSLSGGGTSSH

PITSLRE = assay: binding to immobilized V16742 (IVA1/IVA2, HeLa lysate, MS); design: species or system human
PHKg2 = biological target: T3, PHKg2 (Homo sapiens, UniProt P15735); assay: as above
T3 construct: endogenous in cells; host or cells: HeLa S3
T3 sequence (P15735 1-406): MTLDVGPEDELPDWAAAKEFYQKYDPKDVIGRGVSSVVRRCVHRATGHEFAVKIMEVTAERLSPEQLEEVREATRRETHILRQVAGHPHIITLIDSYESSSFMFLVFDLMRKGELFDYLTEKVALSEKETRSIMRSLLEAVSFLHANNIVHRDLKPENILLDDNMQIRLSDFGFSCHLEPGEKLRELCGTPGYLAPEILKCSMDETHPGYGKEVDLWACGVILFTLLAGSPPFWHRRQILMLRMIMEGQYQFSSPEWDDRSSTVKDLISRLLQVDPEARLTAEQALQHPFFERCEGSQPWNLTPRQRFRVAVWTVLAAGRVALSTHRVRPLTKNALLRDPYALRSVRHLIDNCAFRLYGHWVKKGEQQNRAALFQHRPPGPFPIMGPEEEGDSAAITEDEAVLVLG

NUDT12 = NUDT12 (Homo sapiens, UniProt Q9BQG2)
NUDT12, sequence (Q9BQG2 whole entry): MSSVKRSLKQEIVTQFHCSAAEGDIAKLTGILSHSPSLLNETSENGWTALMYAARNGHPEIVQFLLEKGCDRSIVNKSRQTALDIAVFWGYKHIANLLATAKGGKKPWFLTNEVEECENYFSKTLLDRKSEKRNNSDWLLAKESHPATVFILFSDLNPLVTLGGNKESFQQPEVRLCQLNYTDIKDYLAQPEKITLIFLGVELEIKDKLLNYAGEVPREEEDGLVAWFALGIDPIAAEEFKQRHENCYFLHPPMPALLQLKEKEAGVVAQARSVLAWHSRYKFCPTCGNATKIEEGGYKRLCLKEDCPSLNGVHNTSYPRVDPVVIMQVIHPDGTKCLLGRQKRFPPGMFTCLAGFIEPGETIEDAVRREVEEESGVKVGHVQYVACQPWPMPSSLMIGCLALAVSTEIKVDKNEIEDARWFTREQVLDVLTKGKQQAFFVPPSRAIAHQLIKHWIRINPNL

RIPK2, sequence (O43353 whole entry): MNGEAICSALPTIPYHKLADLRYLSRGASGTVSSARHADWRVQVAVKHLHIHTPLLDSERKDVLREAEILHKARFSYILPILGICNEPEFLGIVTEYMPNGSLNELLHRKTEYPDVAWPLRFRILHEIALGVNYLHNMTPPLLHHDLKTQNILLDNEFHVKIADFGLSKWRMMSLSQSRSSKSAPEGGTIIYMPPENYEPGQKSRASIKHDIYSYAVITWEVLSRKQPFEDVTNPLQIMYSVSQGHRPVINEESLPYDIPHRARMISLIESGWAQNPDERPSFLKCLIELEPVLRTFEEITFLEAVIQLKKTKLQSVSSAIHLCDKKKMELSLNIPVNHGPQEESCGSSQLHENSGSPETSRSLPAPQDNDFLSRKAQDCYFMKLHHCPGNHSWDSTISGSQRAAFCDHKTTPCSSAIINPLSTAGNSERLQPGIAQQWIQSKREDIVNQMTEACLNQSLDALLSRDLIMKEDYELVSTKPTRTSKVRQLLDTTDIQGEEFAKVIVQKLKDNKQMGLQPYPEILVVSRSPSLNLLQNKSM

Question: Which results are given for `COc1cc2ncnc(Nc3ccc(F)c(Cl)c3)c2cc1OCCCN` [AX14596]?
Answer: Ki (RIPK2): 6.2 µM and 6.19 µM; r (3 mg/1 mg lysate) (RIPK2): 2.68; r (5 h/2.5 h inc. time) (RIPK2): 0.90; rAVERAGE (2. inc/1. inc) (RIPK2): 0.06; rAVERAGE (control/1. inc) (RIPK2): 0.02; % BOUND (RIPK2; bound to AX14596 beads): 94%; Ki (IGF2BP1): 367 µM; rAVERAGE (2. inc/1. inc) (IGF2BP1): 0.79; rAVERAGE (control/1. inc) (IGF2BP1): 0.19; Ki (BLMH): 53.6 µM; r (3 mg/1 mg lysate) (BLMH): 11.91; r (5 h/2.5 h inc. time) (BLMH): 1.31; rAVERAGE (2. inc/1. inc) (BLMH): 0.35; rAVERAGE (control/1. inc) (BLMH): 0.08

Question: With `CC(C)n1c(=O)ccc2cnc(Nc3ccc(OCCN)cc3)nc21` [V16742] as the molecule, how does the “r (5 h/2.5 h INC. TIME)” value ([1]; 5 h vs 2.5 h incubation time) read?
Answer: The value was 1.41.

Question: And the “rAVERAGE (CTRL/1 INC)” value ([1]; control beads vs first incubation)?
Answer: The value was 0.06.

Question: And the Ki ([1]; immobilized VI16742)?
Answer: Its Ki is 89.8 µM.

Question: What about the “rAVERAGE (2 INC/1 INC)” value ([1]; second vs first incubation) of the same molecule?
Answer: Its value is 0.63.

Question: And the “Percent bound at various 16742 conc” value (PITSLRE; Experiment 1, 1.87 μM 16742)?
Answer: Its value is 1.13%.

Question: What about the “Percent bound at various 16742 conc” value (PITSLRE; Experiment 1, 8.74 μM 16742) of the same molecule?
Answer: The value was 12.03%.

Question: And the “Percent bound at various 16742 conc” value (PITSLRE; Experiment 1, 52 μM 16742)?
Answer: Its value is 49.06%.

Question: What about the Kd (PITSLRE; Experiment 1, read-out: Kd) of the same molecule?
Answer: The Kd was 56.1 µM.

Question: And the “Percent bound at various 16742 conc” value (PITSLRE; Experiment 2, 1.87 μM 16742)?
Answer: Its value is 2.00%.

Question: What about the “Percent bound at various 16742 conc” value (PITSLRE; Experiment 2, 8.74 μM 16742) of the same molecule?
Answer: The value was 4.78%.

Question: What about the “Percent bound at various 16742 conc” value (PITSLRE; Experiment 2, 52 μM 16742) of the same molecule?
Answer: The value was 46.71%.

Question: And the Kd (PITSLRE; Experiment 2, read-out: Kd)?
Answer: The Kd was 66.7 µM.

Question: And the Kd (PITSLRE; average of two experiments, read-out: Kd Avg)?
Answer: Its Kd is 61.4 µM.

Question: And the “Percent bound at various 16742 conc” value (PHKg2; Experiment 1, 52 μM 16742)?
Answer: Its value is 59.42%.

Question: What about the Kd (PHKg2; Experiment 2) of the same molecule?
Answer: Its Kd is 146 µM.

Question: What about the “Percent bound at various 16742 conc” value (PHKg2; Experiment 2, 1.87 μM 16742) of the same molecule?
Answer: The value was 1.94%.

Question: And the “Percent bound at various 16742 conc” value (PHKg2; Experiment 2, 8.74 μM 16742)?
Answer: Its value is 2.29%.

Question: What about the “Percent bound at various 16742 conc” value (PHKg2; Experiment 2, 52 μM 16742) of the same molecule?
Answer: The value was 27.11%.

Question: Which “rAVERAGE (10 nM/0 nM Gef.)” value (NUDT12) does the source give for `COc1cc2ncnc(Nc3ccc(F)c(Cl)c3)c2cc1OCCCN1CCOCC1` [gefitinib] here?
Answer: The value was 1.04.

Question: What about the “rAVERAGE (100 nM/0 nM Gef.)” value (NUDT12) of the same molecule?
Answer: The value was 0.93.

Question: And the “rAVERAGE (1000 nM/0 nM Gef.)” value (NUDT12)?
Answer: Its value is 0.92.

Question: What about the “rAVERAGE (10000 nM/0 nM Gef.)” value (NUDT12) of the same molecule?
Answer: The value was 0.09.

Reference: patent US8959984B2, “Proteome-wide quantification of small molecule binding to cellular target proteins” (priority 2007, dated 2015)
